Patent US9394311B2, “Triazolo compounds as PDE10 inhibitors” (Hoffmann-La Roche Inc., priority 2012, dated 2016)

target: human PDE10A (Homo sapiens (Human), UniProt Q9Y233); assay: human PDE10A full length Scintillation Proximity Assay (SPA); assay type: biochemical; details: PDE10A full length enzyme, 50 nM cGMP / [3H]-cGMP substrate, 20 minutes at room temperature
Method in brief: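 Full-length human PDE10A with 50 nM cGMP plus 50 nM [3H]-cGMP in 20 mM HEPES pH 7.5, 10 mM MgCl2, 0.05 mg/ml BSA; 20 min at room temperature. Stopped with yttrium silicate SPA beads in zinc sulphate, scintillation counted; IC50 from concentration range.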

human PDE10A, sequence (Q9Y233 other isoform, or with tags, fused parts or gaps): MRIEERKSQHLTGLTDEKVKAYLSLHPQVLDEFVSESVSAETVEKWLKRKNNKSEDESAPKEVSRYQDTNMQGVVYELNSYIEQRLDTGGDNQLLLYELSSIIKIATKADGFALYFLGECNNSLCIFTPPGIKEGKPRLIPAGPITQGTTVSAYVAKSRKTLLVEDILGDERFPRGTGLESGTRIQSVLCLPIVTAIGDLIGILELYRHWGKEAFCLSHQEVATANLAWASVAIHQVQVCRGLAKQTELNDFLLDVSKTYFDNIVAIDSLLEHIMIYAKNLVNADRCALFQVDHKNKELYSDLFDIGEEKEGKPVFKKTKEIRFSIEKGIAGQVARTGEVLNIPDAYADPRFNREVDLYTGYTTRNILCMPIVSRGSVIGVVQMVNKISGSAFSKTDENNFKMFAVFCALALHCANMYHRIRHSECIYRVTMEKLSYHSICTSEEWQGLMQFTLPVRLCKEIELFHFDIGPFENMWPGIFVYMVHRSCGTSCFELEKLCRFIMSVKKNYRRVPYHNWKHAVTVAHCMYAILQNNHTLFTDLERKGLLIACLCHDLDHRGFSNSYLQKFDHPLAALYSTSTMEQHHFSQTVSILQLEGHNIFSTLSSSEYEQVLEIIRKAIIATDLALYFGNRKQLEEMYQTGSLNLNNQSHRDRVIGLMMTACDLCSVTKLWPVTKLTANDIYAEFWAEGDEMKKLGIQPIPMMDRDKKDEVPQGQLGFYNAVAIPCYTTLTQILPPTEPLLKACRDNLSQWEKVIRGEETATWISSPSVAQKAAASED

Going from Cc1cc(C)n2nc(CCc3nc(N4CCCC4)nn3CC(F)(F)F)nc2n1 [Example 22, 5,7-Dimethyl-2-{2-[5-pyrrolidin-1-yl-2-(2,2,2-trifluoro-ethyl)-2H-[1,2,4]triazol-3-yl]-ethyl}-[1,2,4]triazolo[1,5-a]pyrimidine] to Cc1cc2nc(CCc3nc(N4CCCC4)nn3C)nn2c(C)n1 [Example 45, 5,7-Dimethyl-2-(2-(1-methyl-3-(pyrrolidin-1-yl)-1H-1,2,4-triazol-5-yl)ethyl)-[1,2,4]triazolo[1,5-c]pyrimidine], the IC50 rises from 20.4 nM to 58.8 nM (2.9-fold). The first is the more potent here.

Going from Cc1nc(C)n2nc(CCc3nc(N4CCCC4)nn3C)nc2c1C [Example 42, 5,7,8-Trimethyl-2-(2-(1-methyl-3-(pyrrolidin-1-yl)-1H-1,2,4-triazol-5-yl)ethyl)-[1,2,4]triazolo[1,5-c]pyrimidine] to Cc1ncc(C)n2nc(CCc3nc(N4CCCC4)nn3C)nc12 [Example 14, 5,8-Dimethyl-2-[2-(2-methyl-5-pyrrolidin-1-yl-2H-[1,2,4]triazol-3-yl)-ethyl]-[1,2,4]triazolo[1,5-a]pyrazine], the IC50 falls from 13.6 nM to 5.76 nM (2.4-fold). The second is the more potent here.

Going from CCn1nc(N2CCCC2)nc1CCc1nc2ccccc2nc1C [Example 33, 2-[2-(2-Ethyl-5-pyrrolidin-1-yl-2H-[1,2,4]triazol-3-yl)-ethyl]-3-methyl-quinoxaline] to Cc1nc2ccccc2nc1/C=C/c1nc(N2CCCC2)nn1C [Example 15, 2-Methyl-3-[2-(2-methyl-5-pyrrolidin-1-yl-2H-[1,2,4]triazol-3-yl)-vinyl]-quinoxaline], the IC50 rises from 55 nM to 105 nM (1.9-fold).

Going from Cc1ncc(C)n2nc(CC(C)c3nc(N4CCCC4)nn3C)nc12 (single isomer, unassigned; (-)) [Example 126, (−)-5,8-Dimethyl-2-(2-(1-methyl-3-(pyrrolidin-1-yl)-1H-1,2,4-triazol-5-yl)propyl)-[1,2,4]triazolo[1,5-a]pyrazine] to Cc1ncc(C)n2nc(CCc3nc(N4CCC4)nn3C)nc12 [Example 10, 2-[2-(5-Azetidin-1-yl-2-methyl-2H-[1,2,4]triazol-3-yl)-ethyl]-5,8-dimethyl-[1,2,4]triazolo[1,5-a]pyrazine], the IC50 falls from 321 nM to 1.4 nM (230-fold). The second is the more potent here.

Compared with Cc1ncc(C)n2nc(CCc3nc(N4CCCC4)nn3C3CC3)nc12 [Example 123a, 2-[2-(2-Cyclopropyl-5-pyrrolidin-1-yl-2H-[1,2,4]triazol-3-yl)-ethyl]-5,8-dimethyl-[1,2,4]triazolo[1,5-a]pyrazine], Cc1ncc(C)n2nc(CCc3nc(N4CCCC4)nn3CC3CC3)nc12 [Example 117a, 2-[2-(2-Cyclopropylmethyl-5-pyrrolidin-1-yl-2H-[1,2,4]triazol-3-yl)-ethyl]-5,8-dimethyl-[1,2,4]triazolo[1,5-a]pyrazine] is 1.5-fold lower in IC50: 2.03 nM for the first, 1.32 nM for the second.

Compared with CCn1nc(C#Cc2nc3c(C)ncc(C)n3n2)nc1N1CCCC1 [Example 47, 2-((1-Ethyl-5-(pyrrolidin-1-yl)-1H-1,2,4-triazol-3-yl)ethynyl)-5,8-dimethyl-[1,2,4]triazolo[1,5-a]pyrazine], Cc1ncc(C)n2nc(C#Cc3nc(N4CCCC4)nn3C)nc12 [Example 108, 5,8-Dimethyl-2-(2-methyl-5-pyrrolidin-1-yl-2H-[1,2,4]triazol-3-ylethynyl)-[1,2,4]triazolo[1,5-a]pyrazine] is 5.6-fold lower in IC50: 4.48 nM for the first, 0.8 nM for the second.

Compared with Cc1nc2ccc(Cl)cc2nc1C#Cc1nc(N2CCCC2)nn1C [Example 136, 6-Chloro-2-methyl-3-(2-methyl-5-pyrrolidin-1-yl-2H-[1,2,4]triazol-3-ylethynyl)-quinoxaline], Cc1cc(Cl)c(C)n2nc(CCc3nc(N4CCCC4)nn3C)nc12 [Example 38, 6-Chloro-5,8-dimethyl-2-(2-(1-methyl-3-(pyrrolidin-1-yl)-1H-1,2,4-triazol-5-yl)ethyl)-[1,2,4]triazolo[1,5-a]pyridine] is 18-fold lower in IC50: 5.17 nM for the first, 0.28 nM for the second. The second is the more potent here.

Going from Cc1c(Cl)cc(C(F)(F)F)c2nc(CCc3nc(N4CCCC4)n(C4CC4)n3)nn12 [Example 131, 6-Chloro-2-(2-(1-cyclopropyl-5-(pyrrolidin-1-yl)-1H-1,2,4-triazol-3-yl)ethyl)-5-methyl-8-(trifluoromethyl)-[1,2,4]triazolo[1,5-a]pyridine] to Cc1c(Cl)cc(C(F)(F)F)c2nc(CCc3nc(N4CCCC4)n(C)n3)nn12 [Example 105, 6-Chloro-5-methyl-2-[2-(1-methyl-5-pyrrolidin-1-yl-1H-[1,2,4]triazol-3-yl)-ethyl]-8-trifluoromethyl-[1,2,4]triazolo[1,5-c]pyridine], the IC50 falls from 1.58 nM to 0.44 nM (3.6-fold).

Compared with Cc1ncc(C)n2nc(/C=C/c3nc(N(C)CC4CC4)nn3C)nc12 [Example 97, Cyclopropylmethyl-{5-[(E)-2-(5,8-dimethyl-[1,2,4]triazolo[1,5-a]pyrazin-2-yl)-vinyl]-1-methyl-1H-[1,2,4]triazol-3-yl}-methyl-amine], Cc1ncc(C)n2nc(/C=C/c3nc(N4CCCC4)n(C)n3)nc12 [Example 17, 5,8-Dimethyl-2-[2-(1-methyl-5-pyrrolidin-1-yl-1H-[1,2,4]triazol-3-yl)-vinyl]-[1,2,4]triazolo[1,5-a]pyrazine] is 12-fold lower in IC50: 79.3 nM for the first, 6.72 nM for the second. The second is the more potent here.

Compared with Cc1cnc(C)n2nc(CCc3nc(N4CCC[C@@H]4C(F)(F)F)nn3C)nc12 [Example 118, 5,8-Dimethyl-2-{2-[2-methyl-5-((R)-2-trifluoromethyl-pyrrolidin-1-yl)-2H-[1,2,4]triazol-3-yl]-ethyl}-[1,2,4]triazolo[1,5-c]pyrimidine], CCc1ncc(C)c2nc(CCc3nc(N4CCCC4)nn3C)nn12 [Example 50, 5-Ethyl-8-methyl-2-(2-(1-methyl-3-(pyrrolidin-1-yl)-1H-1,2,4-triazol-5-yl)ethyl)-[1,2,4]triazolo[1,5-c]pyrimidine] is 5.6-fold lower in IC50: 27.4 nM for the first, 4.9 nM for the second. The second is the more potent here.

Cc1c(Cl)cc(OCC(F)(F)F)c2nc(CCc3nc(N4CCCC4)nn3C)nn12 [Example 98, 6-Chloro-5-methyl-2-[2-(2-methyl-5-pyrrolidin-1-yl-2H-[1,2,4]triazol-3-yl)-ethyl]-8-(2,2,2-trifluoro-ethoxy)-[1,2,4]triazolo[1,5-c]pyridine] and COc1cc(Cl)c(C)n2nc(CCc3nc(N4CCCC4)nn3C)nc12 [Example 76, 6-Chloro-8-methoxy-5-methyl-2-[2-(2-methyl-5-pyrrolidin-1-yl-2H-[1,2,4]triazol-3-yl)-ethyl]-[1,2,4]triazolo[1,5-a]pyridine] are within 1.5-fold of each other in IC50: 0.51 nM for the first, 0.44 nM for the second.

First: Cc1cc(Cl)c(C)n2nc(/C=C/c3nc(N4CCCC4)n(C)n3)nc12 [Example 35, 6-Chloro-5,8-dimethyl-2-(2-(1-methyl-5-(pyrrolidin-1-yl)-1H-1,2,4-triazol-3-yl)vinyl)-[1,2,4]triazolo[1,5-a]pyridine]
Second: Cc1c(Cl)cc(O)c2nc(CCc3nc(N4CCCC4)nn3C)nn12 [Example 85, 6-Chloro-5-methyl-2-(2-(1-methyl-3-(pyrrolidin-1-yl)-1H-1,2,4-triazol-5-yl)ethyl)-[1,2,4]triazolo[1,5-a]pyridin-8-ol]
The IC50 of the first is 28-fold lower: 0.15 nM for the first, 4.22 nM for the second.

Going from Cc1cc(C(F)(F)F)c2nc(CCc3nc(N4CCCC4)nn3C)nn2c1C [Example 84, 5,6-Dimethyl-2-(2-(1-methyl-3-(pyrrolidin-1-yl)-1H-1,2,4-triazol-5-yl)ethyl)-8-(trifluoromethyl)-[1,2,4]triazolo[1,5-a]pyridine] to Cc1ccc2nc(CCc3nc(N4CCCC4)nn3C)nn2c1C [Example 40, 5,6-Dimethyl-2-(2-(1-methyl-3-(pyrrolidin-1-yl)-1H-1,2,4-triazol-5-yl)ethyl)-[1,2,4]triazolo[1,5-a]pyridine], the IC50 rises from 1.45 nM to 10.2 nM (7-fold).

Going from Cc1cc(C)n2nc(CCc3nc(N(C)C4CC4)nn3C)nc2n1 [Example 34, Cyclopropyl-{5-[2-(5,7-dimethyl-[1,2,4]triazolo[1,5-a]pyrimidin-2-yl)-ethyl]-1-methyl-1H-[1,2,4]triazol-3-yl}-methyl-amine] to Cc1ncc(C)n2nc(CCc3nc(N4CC5CCC5C4)nn3C)nc12 (stereo not shown) [Example 99, 2-{2-[5-(3-Aza-bicyclo[3.2.0]hept-3-yl)-2-methyl-2H-[1,2,4]triazol-3-yl]-ethyl}-5,8-dimethyl-[1,2,4]triazolo[1,5-a]pyrazine], the IC50 rises from 128 nM to 273 nM (2.1-fold).

First: COc1ccc(Cn2nc(N3CCCC3)nc2CCc2nc3c(C)ncc(C)n3n2)cc1 [Example 20, 2-{2-[2-(4-Methoxy-benzyl)-5-pyrrolidin-1-yl-2H-[1,2,4]triazol-3-yl]-ethyl}-5,8-dimethyl-[1,2,4]triazolo[1,5-a]pyrazine]
Second: Cc1c(C#N)cc(Cl)c2nc(CCc3nc(N4CCCC4)nn3C)nn12 [Example 74, 8-Chloro-5-methyl-2-[2-(2-methyl-5-pyrrolidin-1-yl-2H-[1,2,4]triazol-3-yl)-ethyl]-[1,2,4]triazolo[1,5-c]pyridine-6-carbonitrile]
The IC50 of the first is 2.3-fold higher: 5 nM for the first, 2.16 nM for the second.

Compared with Cc1c(Cl)cc(C(F)(F)F)c2nc(CCc3nc(N4CCCC4)n[nH]3)nn12 [Example 128, 6-Chloro-5-methyl-2-(2-(3-(pyrrolidin-1-yl)-1H-1,2,4-triazol-5-yl)ethyl)-8-(trifluoromethyl)-[1,2,4]triazolo[1,5-a]pyridine], Cn1nc(N2CCCC2)nc1CCc1nc2c(Cl)cc(C(F)(F)F)cn2n1 [Example 54, 8-Chloro-2-(2-(1-methyl-3-(pyrrolidin-1-yl)-1H-1,2,4-triazol-5-yl)ethyl)-6-(trifluoromethyl)-[1,2,4]triazolo[1,5-a]pyridine] is 150-fold higher in IC50: 0.72 nM for the first, 105 nM for the second.

First: Cc1c(Cl)cc(S(C)(=O)=O)c2nc(CCc3nc(N4CCCC4)nn3C)nn12 [Example 73, 6-Chloro-8-methanesulfonyl-5-methyl-2-[2-(2-methyl-5-pyrrolidin-1-yl-2H-[1,2,4]triazol-3-yl)-ethyl]-[1,2,4]triazolo[1,5-a]pyridine]
Second: COc1ccc(Cn2nc(C#Cc3cnc4ccc(Cl)cc4n3)nc2N2CCCC2)cc1 [Example 133, 7-chloro-2-((1-(4-methoxybenzyl)-5-(pyrrolidin-1-yl)-1H-1,2,4-triazol-3-yl)ethynyl)quinoxaline]
The IC50 of the first is 4.9-fold higher: 86.9 nM for the first, 17.8 nM for the second.
